The test system of data set [1] is M249R4 cells. The experiment in a line: HSLCI kinase inhibitor screen in Vemurafenib-resistant melanoma. It is filed as cell-based, human. How it is done: (§1) Kinase inhibitor screen. 1× Dose Determination: For each inhibitor, a 1× dose was calculated. Briefly, recommended clinical doses were obtained from published package inserts. Doses were matched to peak serum concentrations (Cmax (ng/mL)) for each inhibitor as measured in clinical trials in which the recommended doses were utilized. Using each drugs' molecular weight, peak serum concentration values were converted to uM units and designated as 1×. […] Cobimetinib and Binimetinib were supplied as dry powders and suspended in DMSO to a final stock concentration of 10 mM upon receipt. Cell Preparation and Dosing: M249R4 cells were plated in a 24-well optical glass-bottomed plate (Cat. #P24-0-N, Cellvis) at 1×10^4 cells/ml (total of 1 mL in each of 24 wells) in media (DMEM, 10% Fetal Bovine Serum, 2 mM L-Glutamine) containing 1 uM Vemurafenib. Plated cells were allowed to adhere overnight at 37° C., 5% CO2. All cells were washed with 1× phosphate-buffered saline, pH 7.4, and provided with fresh media. Immediately following washing and feeding, cells were dosed with inhibitors at dose-escalating concentrations and incubated under standard cell culture conditions for 24 hours. After incubation, cells were imaged for 10 hours using the HSLCI system.
(§2) These inhibitors target a spectrum of kinases (Table 2). […] For each targeted kinase inhibitor, a 1× dose was calculated to match the peak tolerated serum concentration (Cmax (ng/mL)), as measured in clinical trials. Our first assay screened all seven inhibitors at several concentrations to identify those that elicited the most apparent reduction in cell growth rates.

Data set [2] is described as follows: Peak serum concentration (Cmax) in clinical trials at recommended clinical dose. It is filed as in vivo, human. The conditions noted are these: 1× dose for the screen. How it is done: as §1, §2
The conditions of data set [3]: at recommended clinical dose, clinical trials; cited from earlier work.
Data set [4] deals with all three parental lines (M229P, M238P, M249P). Nature of the data set: HSLCI population kinetic response (biomass growth rate). It is filed as cell-based, human. The following applies: 5 μM Vemurafenib. The source says: Live Cell Interferometry. The standard and high speed LCI platforms were based on a custom built inverted microscope, coupled to a quantitative phase detecting camera (SID4BIO, Phasics) which consists of a modified Shack-Hartman mask, fitted to a 1600×1200 pixel CCD camera [Imprex B1621]). The phase calculation down samples the raw image to 400×300 pixels, resulting in effective pixel sizes between 1.3 μm and 2.5 μm, depending on the objective. […] In both the standard and high speed systems, position was determined by maximizing contrast during a vertical scan though focus. […]
Image analysis. Raw interferograms were converted to phase images using the manufacturer's software and analyzed with our custom MATLAB script (The MathWorks). […] Using the resulting flattened phase images, single cells segmented from the background using Canny spatial-derivative edge detection algorithms, their locations, and optical volumes were recorded. […] Single cell growth tracks were quality filtered using an upper cutoff of +1-15% uncertainty (s.d. of residuals) in the calculated growth rate, as determined by linear fitting the biomass versus time data. […]

Where [5] appears, read: second assay, up to 10× concentration.

We go through six molecules from patent US20210278393A1, “METHOD FOR MEASURING SINGLE-CELL BIOMASS TO PREDICT CLINICAL OUTCOMES FOR STEM CELL TRANSPLANT PATIENTS” (VIRGINIA COMMONWEALTH UNIVERSITY, priority 2016, published 2021).

Some results are limits rather than exact numbers.

With `O=C(c1ccc(F)c(F)c1Nc1ccc(I)cc1F)N1CC(O)([C@@H]2CCCCN2)C1` [Cobimetinib], in data set [1] (second assay, dosing range 0.05×-1×), the dose response result was “robust dose responses”. Moreover, the “uM (1×) (peak serum concentration converted using molecular weight)” value (from here on “uM (1×)”) in data set [2] worked out at 0.51 µM. The “Serum Conc. (ng/mL) (peak serum concentration, Cmax)” value (“Serum Conc. (ng/mL)” for short) in data set [3] was 273 ng/mL.

`Cn1cnc2c(F)c(Nc3ccc(Br)cc3F)c(C(=O)NOCCO)cc21` [Binimetinib]: the dose response entry in data set [1] (first assay) is recorded as “slight dose response”. In addition, the “uM (1×)” value in data set [2] came out at 0.58 µM. Further, in data set [3], the “Serum Conc. (ng/mL)” value was 257.0 ng/mL.

Take `CC(=O)Nc1cccc(-n2c(=O)n(C3CC3)c(=O)c3c(Nc4ccc(I)cc4F)n(C)c(=O)c(C)c32)c1` [Trametinib]: in data set [2], the “uM (1×)” value was found to be 0.04 µM. Moreover, the “Serum Conc. (ng/mL)” value in data set [3] is 22.2 ng/mL.

Turning to `CC(C)(C)c1nc(-c2cccc(NS(=O)(=O)c3c(F)cccc3F)c2F)c(-c2ccnc(N)n2)s1` [Dabrafenib], in data set [1] (first assay, 0.1×), the growth rate response result was “slight reduction in growth rate”. Further, the growth rate response result in data set [1] (second assay, doses greater than 0.1×) is listed as “reduced growth rates”. Besides, in data set [1] (setting [5]), the cell killing entry is “nor does it kill cells” and the dose response entry was “does not elicit a dose response”. For the same molecule, the “uM (1×)” value in data set [2] is 2.02 µM. Besides, the “Serum Conc. (ng/mL)” value in data set [3] was 1050 ng/mL.

In the case of `Cn1cnc2c(F)c(Nc3ccc(Br)cc3Cl)c(C(=O)NOCCO)cc21` [Selumetinib], the “uM (1×)” value in data set [2] was 2.55 µM. Also, in data set [3], the “Serum Conc. (ng/mL)” value is listed as 1165 ng/mL.

On to `CCCS(=O)(=O)Nc1ccc(F)c(C(=O)c2c[nH]c3ncc(-c4ccc(Cl)cc4)cc23)c1F` [Vemurafenib], for which the “time by which significant growth rate reduction occurred” value in data set [4] is no more than 20 h. Besides, the “uM (1×)” value in data set [2] worked out at 9.80 µM. Also, in data set [3], the “Serum Conc. (ng/mL)” value was 4800 ng/mL.
